Data reported in patent US20100021895A1, “Vectors for Inducing Homozygous Mutations and Methods of Using Same” (priority 2006, published 2010).

Columns and labels:
[1] = test system: HSV thymidine kinase (TK) gene in cells containing an entrapment mutation in the Hesx1 gene; test: TK gene loss, selection in gancyclovir; type: cell-based, mouse
[2] = test system: HSV thymidine kinase (TK) gene in cells containing an entrapment mutation in the Hesx1 gene; test: TK gene loss, selection in gancyclovir; type: cell-based, mouse; details: Table 2
Method: Two types of experiments were performed to assess whether frequencies of LOH were transiently or stably elevated following carcinogen exposure. First, cells were treated with MNU and HU as before and the percentages of cells having undergone LOH were determined by selection in 2.0 mg/ml G418 at various times thereafter. Over 90% of the total LOH was induced within 24 hours of MNU and HU exposure, and only minimal additional LOH occurred subsequently (FIG. 14). Second, it was asked whether LOH frequencies at a second locus were elevated in cells having undergone LOH at the entrapment locus. For this, a Herpes Simplex Virus thymidine kinase (TK) gene was introduced into cells containing an entrapment allele of the Hesx1 gene and frequencies of TK gene loss were measured by selection in gangcyclovir. These studies utilized the cell line containing the TK gene (C8TK1) and derivatives of C8TK1 that had undergone LOH at the entrapment locus either spontaneously (C8TK1sN) or after treatment with either MNU (C8TKmN) or HU (C8TK1hN). […] Moreover, the stability of the TK gene following carcinogen treatment was largely unaffected by prior selection for LOH involving the entrapment locus. Similar results were also obtained with a second TK-containing line (C8TK2, Table 4). Together these experiments indicate that carcinogen-induced LOH results from an acute response rather than from a stably altered cellular phenotype.
Serially diluted cells were plated onto 150 mm plates containing drug-free media and allowed to attach overnight. Unattached cells were removed and media containing the indicated concentrations of methyl-nitrosourea, hydroxyurea, ethidium bromide, doxorubicin, methotrexate, diepoxybutane, or mitomycin C was put onto cells for 4 hours (or cells were exposed to ultraviolet light in the absence of media and allowed to recover in drug-free media for 4 hours). Cells were then rinsed twice with drug-free media and selection media containing 0.0, 0.3, or 2.0 mg/ml G418 was put onto cells. After 12 days of selection, the number of colonies surviving was counted and the frequency of colony formation was determined by dividing the number of colonies obtained from 2.0 mg/ml G418 selection to that obtained from parallel experiments with 0.3 mg/ml G418 selection. TK gene loss was assessed following selection in media containing 2 μg/ml gancyclovir.
Table 2. […] The HSV thymidine kinase (TK) gene was introduced into cells containing an entrapment mutation in the Hesx1 gene. A TK expressing (TK^+) clone (C8TK1) was used to select for cells that had undergone LOH at the entrapment locus (EL) spontaneously (C8TK1sN) or following treatment with HU (C8TK1hN) or MNU (C8TK1mN). The frequencies of TK gene loss were compared in cells with and without prior selection for LOH at the entrapment locus and the differences were expressed as the indicated ratios.
Table 4. Carcinogen-induced LOH does generate genetically unstable cells. The HSV thymidine kinase (TK) gene was introduced into cells containing an entrapment mutation in the Hesx1 gene. A TK expressing (TK+) clone (C8TK2) was used to select for cells that had undergone LOH at the entrapment locus (EL) spontaneously (C8TK2sN) or following treatment with HU (C8TK2hN) or MNU (C8TK2mN). The frequencies of spontaneous TK gene loss (Treatment=none) or TK gene loss following treatment with HU or MNU were compared in cells with (EL^−/−) and without prior selection for LOH (EL^+/+) at the entrapment locus and the differences were expressed as the indicated ratios.

Compound	Ratio of Freq. TK loss ([1]; Table 2, C8TK1mN and C8TK1sN, Treatment none)	Ratio of Freq. TK loss ([1]; Table 2, C8TK1sN and C8TK1mN, Treatment MNU)	Freq. TK loss ([1]; Table 4, clone printed C8TK1mN (EL LOH induced by MNU), Treatment MNU)	Freq. TK loss ([1]; Table 4, clone printed C8TK1mN (EL LOH induced by MNU, TK+ EL−/−), Treatment none)	Freq. TK loss ([1]; Table 4, clone printed C8TK1sN (Spont. EL LOH), Treatment MNU)	Ratio of Freq. TK loss ([1]; Table 4, printed C8TK1mN and C8TK1sN, Treatment none)	Ratio of Freq. TK loss ([1]; Table 4, printed C8TK1sN and C8TK1mN, Treatment MNU)	Freq. TK loss ([2]; clone C8TK1mN (EL LOH induced by MNU), Treatment MNU)	Freq. TK loss ([2]; clone C8TK1mN (EL LOH induced by MNU, TK+ EL−/−), Treatment none)	Freq. TK loss ([2]; clone C8TK1sN (Spont. EL LOH), Treatment MNU)	Ratio of Freq. TK loss ([1]; Table 2, C8TK1sN and C8TK1hN, Treatment none)	Freq. TK loss ([1]; Table 4, clone printed C8TK1hN (EL LOH induced by HU), Treatment HU)	Freq. TK loss ([1]; Table 4, clone printed C8TK1hN (EL LOH induced by HU, TK+ EL−/−), Treatment none)	Freq. TK loss ([1]; Table 4, clone printed C8TK1sN (Spont. EL LOH), Treatment HU)	Ratio of Freq. TK loss ([1]; Table 4, printed C8TK1sN and C8TK1hN, Treatment HU)	Ratio of Freq. TK loss ([1]; Table 4, printed C8TK1sN and C8TK1hN, Treatment none)	Ratio of Freq. TK loss ([2]; C8TK1sN and C8TK1hN, Treatment HU)	Freq. TK loss ([2]; clone C8TK1hN (EL LOH induced by HU), Treatment HU)	Freq. TK loss ([2]; clone C8TK1hN (EL LOH induced by HU, TK+ EL−/−), Treatment none)	Freq. TK loss ([2]; clone C8TK1sN (Spont. EL LOH), Treatment HU)
CN(N=O)C(N)=O [MNU, methyl-nitrosourea]	2.6	1.8	4.5 × 10^−4	1.3 × 10^−5	2.9 × 10^−4	2.4	1.6	4.7 × 10^−4	1.4 × 10^−5	2.6 × 10^−4	–	–	–	–	–	–	–	–	–	–
NC(=O)NO [HU, hydroxyurea]	–	–	–	–	–	–	–	–	–	–	0.6	4.9 × 10^−4	1.2 × 10^−5	2.8 × 10^−4	1.8	2.3	1.7	3.9 × 10^−4	8.4 × 10^−5	2.3 × 10^−4
